Results reported in PMC3884022 (Journal of Hematology & Oncology, 2014).
Read-outs that look alike come from different tables or passages of the source.

Experiments:
AKT3 = system: AKT3; design: method as in earlier work; conditions: cited from earlier work
[1] = system: patients with advanced solid tumors
Protocol: The dose-escalation phase in all schedules followed a toxicity probability interval approach, where the aim was to target a dose with a DLT rate of 30% [20].
For all treatment schedules, safety assessments were conducted at baseline and on days 1, 2, 3, 7, 15, and 21 of cycle 1, and weekly in cycles 2 to 6. From cycle 7 onwards, safety assessments were performed on day 1 of each cycle. […] In addition to glucose monitoring, serum c-peptide and whole blood HbA1c were measured at baseline and monthly. Adverse events (AEs) and laboratory variables were assessed using the National Cancer Institute Common Terminology Criteria for Adverse Events (NCI-CTCAE) version 3.0 ^1.

CYP3A = CYP3A induction (mRNA and activity); type: in vitro ADME; conditions: at 0.1 to 10 μM
[2] = system: NCI-H292 and A2780 tumor cells; conditions: with carboplatin and docetaxel; cited from earlier work

## NC1(c2ccc(-c3nc4ccn5c(=O)[nH]nc5c4cc3-c3ccccc3)cc2)CCC1 [MK-2206]
AKT3
  IC50: 65 nM
[1]; all arms and schedules (N = 72)
  vomiting, frequency of AE: 36%
[1]; arm 1, Q3W schedule
  rash, frequency: 25%
[1]; arm 1, Q3W, with carboplatin AUC 6 and paclitaxel 200 mg/m^2
  MTD of MK-2206: 135 mg
[1]; arm 1, QOD days 1, 3, 5, 7, PO, with carboplatin AUC 6 and paclitaxel 200 mg/m^2
  MTD of MK-2206: 45 mg
[1]; arm 2, Q3W, with docetaxel
  MTD of MK-2206: not reached
[1]; arm 2, Q3W, with docetaxel 60 mg/m^2
  MAD of MK-2206: 200 mg
[1]; arm 3, MK-2206 135 mg QW with erlotinib
  DLT rate: 17%
[1]; arm 3, QW, with erlotinib
  MTD of MK-2206: not reached
[1]; human, in vivo
  Alopecia Grade 4: 0 n (%)
  Decreased appetite Grade 4: 0 n (%)
  Diarrhea Grade 4: 0 n (%)
  Fatigue Grade 4: 0 n (%)
  Nausea Grade 4: 0 n (%)
  Pruritus Grade 4: 0 n (%)
  Rash Grade 4: 0 n (%)
  Stomatitis Grade 4: 0 n (%)
  Vomiting Grade 4: 0 n (%)
  alopecia, frequency of AE: 40%
  anorexia, frequency of AE: 44%
  diarrhea, frequency of AE: 44%
  fatigue, frequency of AE: 68%
  hyperglycemia, frequency of AE: 25%
  nausea, frequency of AE: 49%
  rash, frequency: 40%
  rash, frequency of AE: 47%
  rate of febrile neutropenia: 60%
  stomatitis, frequency of AE: 32%
  time to full reversal of rash after dose interruption and appropriate treatment: 7 to 14 days
[1]; human, in vivo, 21 days
  Dose-limiting toxicities: 0
CYP3A
  effect on CYP3A mRNA and activity: insignificant effect
[2]
  inhibition of tumor cell growth in combination: synergy
